In test [1] the test system is Lsa-nAChR-α1 and Lsa-nAChR-α2 with Lsa-nAChR-β1 and APs (Lsa-nAChR-β2 removed). Nature of the test: Two-electrode voltage-clamp, oocytes with Lsa-nAChR-α1, -α2, -β1 and APs (Lsa-nAChR-β2 removed). The format is cell-based, Lepeophtheirus salmonis. Particulars: Lsa-nAChR-β2 removed from injection mix. The source says:
(§1) To determine the subunit composition of the functional L. salmonis nAChR channel, we tried different possible combinations of the six nAChR subunit (α1, α2, α3, α7, β1 and β2) cRNAs along with the cRNAs from the three AP, injected into X. laevis oocytes, which is one of the most commonly used systems for functional expression of nAChRs. Three to five days after injection, the presence of a functional nAChR was investigated by the two-electrode voltage-clamp method. To determine the relative contribution of each gene for the functional expression of nAChR, we removed cRNAs from the injection mixture, either singularly or in combination (Fig 2). […]
(§2) Oocytes were impaled with two electrodes filled with 3 M KCl, and their membrane potentials were maintained at -80 mV throughout the experiment. Currents evoked by ACh or drugs were recorded using an automated process equipped with standard two-electrode voltage-clamp configuration (HiClamp, MultiChannel Systems). […] Data were captured at 100 Hz, filtered at 10 Hz, and analyzed using proprietary data acquisition and analysis software running under Matlab (Mathworks Inc., Natick, MA, USA). […] Plots of the peak inward currents as a function of the logarithm of the agonist concentration yield classical concentration-activation curves were readily fitted by single Hill equations. […]
For orientation: Two-electrode voltage clamp is typically applied to oocytes expressing channels or transporters.

Test [2] addresses T1, Lsa-nAChR1 (α1α2β1β2) (Lepeophtheirus salmonis, UniProt A0A7S5PZ05+A0A7S5Q3W4+A0A7S5Q7H3+A0A7S5U9A3). Nature of the test: cell-based. The format is cell-based. The protocol:
(§3) Capped cRNAs were synthesized (T7 mMessage mMachine kit, Ambion, Austin, TX, USA) from the linearized vectors containing the different subunits according to the manufacturer’s protocol. cRNA samples were stored at -80°C until use. Oocytes were ordered from Ecocyte (Germany). Oocytes were microinjected using a Roboinject automatic injection system (Multi Channel Systems, Reutlingen, Germany) with 15–25 nl of cRNA solution (30–300 ng/μl per subunit) and then incubated at 18°C in sterile filtered Barth solution containing: NaCl (88 mM), KCl (1 mM), NaHCO3 (2.4 mM), HEPES (10 mM, pH 7.5), MgSO4·7H2O (0.82 mM), Ca(NO3)2·4H2O (0.33 mM), CaCl2·6H2O (0.41 mM), at pH 7.4, and supplemented with 20 μg/ml of kanamycin, 100 U/ml benzylpenicillin and 100 μg/ml streptomycin. Recordings were made 3–5 days post-cRNA injection.
(§4) Oocytes were impaled with two electrodes filled with 3 M KCl, and their membrane potentials were maintained at -80 mV throughout the experiment. Currents evoked by ACh or drugs were recorded using an automated process equipped with standard two-electrode voltage-clamp configuration (HiClamp, MultiChannel Systems). The principle of this system differs from standard electrophysiology because, instead of applying the compound in the perfusion, the oocyte is moved into a well from a 96-well microtiter plate containing the desired solution. Data were captured at 100 Hz, filtered at 10 Hz, and analyzed using proprietary data acquisition and analysis software running under Matlab (Mathworks Inc., Natick, MA, USA). Additional analyses were performed in Excel (Microsoft, Redmond, WA, USA). […] Concentration-activation curves were fitted with the equation: Y=100/1+10^H(logEC50−X) (1) where Y is the normalized response, logEC50 is the logarithm of the concentration of agonist eliciting half-maximal current amplitude, X is the log of dose or concentration, and H is the slope factor or Hill slope. Individual curves were standardized to the initial ACh (100 μM) application amplitude and subsequently averaged. EC50 values were determined from the mean of at least 3 or more cells.
(§5) Dose-response curves were obtained by sequential applications for 10s of increasing concentrations of ACh or drugs to oocytes expressing Lsa-nAChR1 or Lsa-nAChR2. A total time of 90 s time was allowed between applications for the channel to recover from any desensitization. To test the antagonistic effect of DHbE (Fig 5) and for the screening protocol (Fig 6), cells that evoked a significant current with ACh were exposed to the test compounds at 10 μM respectively 1 μM using a pre-application of 45 s and co-application of 10 s with ACh (1 μM).

Test [3] deals with T2, Lsa-nAChR2 (α3β1β2) (Lepeophtheirus salmonis, UniProt A0A7S5PZ03+A0A7S5PZ05+A0A7S5Q7H3). Nature of the test: cell-based. In kind it is cell-based. The protocol:
as §3, §4, §5

The test system of test [4] is six nAChR subunits (α1, α2, α3, α7, β1 and β2) and the three APs. Briefly: Two-electrode voltage-clamp, oocytes co-injected with all six nAChR subunits and three ancillary proteins. In kind it is cell-based, Lepeophtheirus salmonis. Particulars: equimolar co-injection.
Excerpt: as §1, §2

Test [5] has as its system hybrid Locusta migratoria/Rattus norvegicus nAChR. Details: method as in earlier work. The conditions noted are these: hybrid receptor in Xenopus oocytes; ref 25 (Bao et al.); cited from earlier work.
The target in test [6] is T1, Lsa-nAChR1 (α1α2β1β2). The format is cell-based. Particulars: co-applied at 10 μM, both ratios (10:1 and 1:10).
Test [7] concerns the target T2, Lsa-nAChR2 (α3β1β2). In kind it is cell-based. The conditions noted are these: co-applied at 10 μM, both ratios (10:1 and 1:10).
Setting [8] is: oocytes exposed to acetylcholine.

The structures appear in SMILES notation.

T1 sequence (A0A7S5PZ05 entry or part of it): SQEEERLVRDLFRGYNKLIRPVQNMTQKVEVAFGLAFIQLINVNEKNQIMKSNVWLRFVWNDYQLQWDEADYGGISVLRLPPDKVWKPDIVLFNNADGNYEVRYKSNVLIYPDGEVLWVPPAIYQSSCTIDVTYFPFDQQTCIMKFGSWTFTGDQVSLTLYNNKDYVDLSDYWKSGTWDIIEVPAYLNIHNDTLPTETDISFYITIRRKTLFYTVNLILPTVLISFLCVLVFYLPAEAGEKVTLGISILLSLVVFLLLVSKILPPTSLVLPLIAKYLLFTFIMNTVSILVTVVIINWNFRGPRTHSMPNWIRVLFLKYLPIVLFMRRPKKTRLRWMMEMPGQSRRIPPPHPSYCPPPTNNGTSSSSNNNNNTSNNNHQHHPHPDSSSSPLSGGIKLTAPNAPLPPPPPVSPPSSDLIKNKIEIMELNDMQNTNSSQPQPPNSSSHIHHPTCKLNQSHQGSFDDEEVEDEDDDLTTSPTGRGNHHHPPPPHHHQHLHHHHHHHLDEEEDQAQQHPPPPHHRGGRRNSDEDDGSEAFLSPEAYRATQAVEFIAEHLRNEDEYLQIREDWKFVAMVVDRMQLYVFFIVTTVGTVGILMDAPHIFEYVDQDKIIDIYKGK
T1 sequence (A0A7S5Q3W4 entry or part of it): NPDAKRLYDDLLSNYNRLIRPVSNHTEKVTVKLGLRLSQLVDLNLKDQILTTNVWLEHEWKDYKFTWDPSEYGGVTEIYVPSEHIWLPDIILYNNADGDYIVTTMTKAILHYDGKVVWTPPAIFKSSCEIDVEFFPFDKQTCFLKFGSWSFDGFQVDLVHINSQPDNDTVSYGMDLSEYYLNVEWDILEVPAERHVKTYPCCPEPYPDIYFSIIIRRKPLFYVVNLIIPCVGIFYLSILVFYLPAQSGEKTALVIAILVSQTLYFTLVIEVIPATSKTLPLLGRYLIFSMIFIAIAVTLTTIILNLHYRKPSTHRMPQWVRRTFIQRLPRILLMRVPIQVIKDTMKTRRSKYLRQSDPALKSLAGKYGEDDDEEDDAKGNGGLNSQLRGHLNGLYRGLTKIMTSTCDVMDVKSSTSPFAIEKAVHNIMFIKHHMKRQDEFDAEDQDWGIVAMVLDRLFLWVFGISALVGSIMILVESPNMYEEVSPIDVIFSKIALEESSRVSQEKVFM
T1 sequence (A0A7S5U9A3 entry or part of it): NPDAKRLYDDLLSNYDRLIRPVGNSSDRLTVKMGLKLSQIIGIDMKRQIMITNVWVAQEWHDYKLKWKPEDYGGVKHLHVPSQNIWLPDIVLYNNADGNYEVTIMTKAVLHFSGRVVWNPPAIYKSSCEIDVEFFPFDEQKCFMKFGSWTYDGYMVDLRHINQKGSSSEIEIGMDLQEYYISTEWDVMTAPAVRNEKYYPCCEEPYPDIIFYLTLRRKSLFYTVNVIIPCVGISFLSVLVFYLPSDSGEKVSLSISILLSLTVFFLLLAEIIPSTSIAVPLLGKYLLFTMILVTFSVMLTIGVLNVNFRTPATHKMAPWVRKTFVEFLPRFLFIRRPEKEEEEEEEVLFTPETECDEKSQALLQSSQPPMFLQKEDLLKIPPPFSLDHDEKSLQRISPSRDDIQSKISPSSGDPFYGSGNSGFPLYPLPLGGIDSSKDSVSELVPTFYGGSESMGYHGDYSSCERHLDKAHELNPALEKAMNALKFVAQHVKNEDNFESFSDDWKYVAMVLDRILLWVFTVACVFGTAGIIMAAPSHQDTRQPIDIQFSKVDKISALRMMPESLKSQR
T1 sequence (A0A7S5Q7H3 entry or part of it): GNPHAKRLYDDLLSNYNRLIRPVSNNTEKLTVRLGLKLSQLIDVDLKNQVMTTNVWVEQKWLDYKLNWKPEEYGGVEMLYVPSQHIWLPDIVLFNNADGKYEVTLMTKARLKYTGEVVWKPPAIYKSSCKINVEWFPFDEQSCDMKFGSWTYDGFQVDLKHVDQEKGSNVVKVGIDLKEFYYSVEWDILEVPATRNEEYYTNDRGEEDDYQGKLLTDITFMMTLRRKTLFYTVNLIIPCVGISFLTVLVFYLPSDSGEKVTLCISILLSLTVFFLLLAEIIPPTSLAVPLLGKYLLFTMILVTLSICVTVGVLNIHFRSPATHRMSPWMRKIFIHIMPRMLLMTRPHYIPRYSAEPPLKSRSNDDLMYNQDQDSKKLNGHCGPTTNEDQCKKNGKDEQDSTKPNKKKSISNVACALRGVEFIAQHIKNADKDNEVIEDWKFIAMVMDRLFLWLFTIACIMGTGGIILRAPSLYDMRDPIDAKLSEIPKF

As to `CC(=O)OCC[N+](C)(C)C` [Acetylcholine], the “current (median) with 100 μM ACh” value in test [1] is given as 0.17 μA; on Lsa-nAChR1 (α1α2β1β2) [2] (Lsa-nAChR-α1 and -α2 with both β subunits and APs), 4.50 μA; in test [4], 17.00 μA. In addition, the “type of effect on the receptor (agonist / partial-agonist / no effect)” value at Lsa-nAChR1 (α1α2β1β2) [2] (dose-response, 1:1 (α:β) ratio) was “agonist”. The averaged maximum response on Lsa-nAChR1 (α1α2β1β2) [2] (setting [8]) and on Lsa-nAChR2 (α3β1β2) [3] (setting [8]) was greater than 5 μA each time. The “Mean Hill Slope ± SD” value came out at 1.44 ± 0.52 on Lsa-nAChR1 (α1α2β1β2) [2] (ratio α/β 1:10), 1.46 ± 0.37 at Lsa-nAChR1 (α1α2β1β2) [2] (ratio α/β 10:1), 1.25 ± 0.23 at Lsa-nAChR2 (α3β1β2) [3] (ratio α/β 1:10) and 1.30 ± 0.22 on Lsa-nAChR2 (α3β1β2) [3] (ratio α/β 10:1). Moreover, the “Mean max current (μA)” value on Lsa-nAChR1 (α1α2β1β2) [2] (ratio α/β 1:10) is listed as 8.35 μA; at Lsa-nAChR1 (α1α2β1β2) [2] (ratio α/β 10:1), 4.85 μA; at Lsa-nAChR2 (α3β1β2) [3] (ratio α/β 1:10) it was 3.17 μA; at Lsa-nAChR2 (α3β1β2) [3] (ratio α/β 10:1), 2.52 μA. For the same molecule, the Emax at Lsa-nAChR1 (α1α2β1β2) [2] (read-out: Max peak (% Ach)) came out at 100%. Also, the “type of effect on the receptor (agonist / partial-agonist / super-agonist / no effect)” value on Lsa-nAChR2 (α3β1β2) [3] (dose-response, 1:1 (α:β) ratio) was “agonist”. Further, on Lsa-nAChR2 (α3β1β2) [3] (maximal peak current compared to ACh 100 μM, 1:1 (α:β) ratio), the “Max peak (% Ach)” value worked out at 100%. The “maximum response to acetylcholine” value in test [5] was 0.24 μA.

On to `CO[C@H]1CC=C2CCN3CCC4=C(CC(=O)OC4)[C@]23C1` [DHbE, Dihydro-β-erythroidine], for which the “inhibition of the ACh-triggered (10 μM) response” value on Lsa-nAChR1 (α1α2β1β2) [6] and on Lsa-nAChR2 (α3β1β2) [7] was “completely inhibit” throughout.
